This is an account of results in patent publication US12122816B2, “Long acting peptide tyrosine tyrosine (PYY) analogs and methods of use” (Intarcia Therapeutics, Inc., priority 2020, dated 2024).

Data set [1] is described as follows: Solubility in DI water at room temperature (visual inspection). The data set is classed as physicochemical. Conditions: DI water, TFA salt form, read-out: Solubility (in Water, RT). The procedure: The analog polypeptides described herein were tested for solubility in saline or in aqueous (DI water) at room temperature. Samples were visually inspected for clarity of the sample, any appearance of turbidity or haziness.

The target of the next data set is T1, human Y1 receptor (Homo sapiens, UniProt P25929).
T1 sequence (P25929 1-384): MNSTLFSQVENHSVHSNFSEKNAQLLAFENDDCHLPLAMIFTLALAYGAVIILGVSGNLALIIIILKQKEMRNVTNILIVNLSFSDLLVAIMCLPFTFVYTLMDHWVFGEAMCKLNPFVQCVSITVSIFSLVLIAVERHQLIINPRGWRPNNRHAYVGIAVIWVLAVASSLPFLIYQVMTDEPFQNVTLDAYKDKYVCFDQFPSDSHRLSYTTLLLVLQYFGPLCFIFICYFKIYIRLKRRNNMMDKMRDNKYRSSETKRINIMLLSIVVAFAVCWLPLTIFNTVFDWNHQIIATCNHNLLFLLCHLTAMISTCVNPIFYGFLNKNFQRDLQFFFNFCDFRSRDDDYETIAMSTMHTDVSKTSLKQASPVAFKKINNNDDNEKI
The experiment in a line: NPY receptor functional assay (cAMP, HEK-CNG cells, ACTOne membrane potential dye). The data set is classed as cell-based. An excerpt:
The NPY family of G-protein coupled receptors include Y1, Y2, Y4, and Y5 in humans and rats. […] Following agonist binding, the receptor-G protein complex activates a downstream intracellular signaling cascade which leads to inhibition of adenylate cyclase and a reduction in intracellular cAMP levels.
HEK-CNG cells stably expressing the human or rat Y1, Y2, Y4 or Y5 receptors (Codex Biosolutions) were used to characterize the functional potency of peptide agonists using the ActOne™ membrane potential dye kit (Codex Biosolutions). In addition to each NPY receptor, each cell line encodes a proprietary exogenous Cyclic Nucleotide-Gated (CNG) channel (Codex Biosolutions). The channel is activated by elevated intracellular levels of cAMP, resulting in ion flux and cell membrane depolarization which can be detected with a calcium sensitive dye or fluorescent membrane potential (MP) dye. Cells were carried in growth media containing 90% DMEM, 10% FBS, 250 mcg/mL G418 and 1 mcg/mL puromycin for no more than 15 passages.
Prior to testing, cells were counted and dispensed at 14,000 cells per well (Y1, Y4 and Y5) or 28,000 cells per well (Y2) into black 384 well Poly-D-Lysine plates at 20 mcL per well. Covered plates were then incubated at room temperature for 30 minutes followed by an overnight incubation at 37° C. in 5% C02. The following day, media was removed and wells were washed once with 40 mcL Dulbecco's phosphate buffered saline. […] Ten microliters of experimental peptide or peptide standard was added in triplicate to wells and incubated for 50 minutes at room temperature in the dark. Following this incubation step, plates were read again as before (final read).
NPY receptor activation, leading to a reduction in intracellular cAMP levels, is detected as a decrease in isoproteranol induced fluorescent signal. Peptide standard and experimental values were initially transformed in excel using the formula: final read/initial read. […] Normalized data was analyzed from triplicate tests and used to estimate the EC50 for each test peptide on each receptor. Data was fit in GraphPad Prism software (v8.2.1) using a 3-parameter logistic curve model: Y=Bottom+(Top−Bottom)/(1+10^((LogEC50−X))). EC50 values were converted to pEC50 values using the formula: pEC50=−Log(EC50).

The nature of data set [2]: In vitro metabolic stability in kidney brush border membranes (kBBM). Conditions: 1 mcM peptide, 37° C. The format is in vitro ADME.
The target of the next data set is T2, human Y5 receptor (Homo sapiens, UniProt Q15761).
T2 sequence (Q15761 1-445): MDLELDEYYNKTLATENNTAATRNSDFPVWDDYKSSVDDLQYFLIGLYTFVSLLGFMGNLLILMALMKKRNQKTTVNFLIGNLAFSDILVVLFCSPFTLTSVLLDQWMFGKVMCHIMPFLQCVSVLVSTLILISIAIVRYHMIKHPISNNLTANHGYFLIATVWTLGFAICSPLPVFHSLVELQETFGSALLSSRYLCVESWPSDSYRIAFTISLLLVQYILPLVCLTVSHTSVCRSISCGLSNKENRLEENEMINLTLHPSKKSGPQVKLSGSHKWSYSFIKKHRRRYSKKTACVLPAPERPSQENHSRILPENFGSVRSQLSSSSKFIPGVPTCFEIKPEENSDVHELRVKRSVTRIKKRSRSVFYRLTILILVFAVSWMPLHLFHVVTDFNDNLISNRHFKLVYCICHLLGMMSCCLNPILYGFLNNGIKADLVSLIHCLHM
The experiment in a line: NPY receptor functional assay (cAMP, HEK-CNG cells, ACTOne membrane potential dye). The data set is classed as cell-based. Conditions: NPY5R pEC50, HEK-CNG cells; standard NPY; species (human or rat) not given. Put shortly:
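HEK-CNG cells stably expressing each human receptor; peptides added in triplicate for 50 minutes at room temperature, with agonism read as decreased isoproterenol-induced membrane potential dye signal (final/initial read).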

Where two headings read alike, the source gives them in different places.

Regarding `CC(C)C[C@H](NC(=O)[C@H](Cc1ccc(O)cc1)NC(=O)[C@H](Cc1c[nH]cn1)NC(=O)[C@H](CCCNC(=N)N)NC(=O)[C@H](CC(C)C)NC(=O)[C@H](CC(=O)O)NC(=O)[C@@H](CCCCNC(=O)CC[C@H](NC(=O)CC[C@H](NC(=O)CCCCCCCCCCCCCCCCCCC(=O)O)C(=O)O)C(=O)O)NC(=O)[C@H](Cc1ccc(O)cc1)NC(=O)[C@H](Cc1ccc(O)cc1)NC(=O)[C@H](CCCNC(=N)N)NC(=O)[C@H](CC(N)=O)NC(=O)[C@H](Cc1c[nH]c2ccccc12)NC(=O)[C@H](CCC(=O)O)NC(=O)[C@H](CCC(=O)O)NC(=O)[C@@H]1CCCN1C(=O)[C@H](CO)NC(=O)[C@H](C)NC(=O)[C@H](CC(=O)O)NC(=O)[C@H](CCCCN)NC(=O)CNC(=O)[C@@H]1CCCN1C(=O)[C@H](C)NC(=O)[C@H](CCC(=O)O)NC(=O)[C@@H]1CCCN1C(=O)[C@H](CCCCN)NC(=O)[C@@H]1CCCN1)C(=O)N[C@@H](CC(N)=O)C(=O)N[C@@H](Cc1c[nH]c2ccccc12)C(=O)N[C@@H](CC(C)C)C(=O)N[C@H](C(=O)N[C@@H](CCCNC(=N)N)C(=O)N[C@@H](CCC(N)=O)C(=O)N[C@@H](CCCNC(=N)N)C(=O)N[C@@H](Cc1ccccc1)C(N)=O)[C@@H](C)O` [Compound A14], the solubility (as a rule, how much of the substance goes into solution per volume) in data set [1] is 79 mg/mL. For the same molecule, the EC50 (commonly the concentration that produces a half-maximal response) at human Y1 receptor was 3.16 nM; on human Y5 receptor it was 5.01 nM. Also, the half-life at 1 mcM is more than 12 h in data set [2] (pH 7.4, human kBBM 50 mcg protein/mL, read-out: hkBBM t½ (converted)) and more than 12 h in data set [2] (pH 7.4, rat kBBM 50 mcg protein/mL, read-out: rkBBM t½).
